We go through 1 compound from patent US20150191445A1, “ACYL-HYDRAZONE AND OXADIAZOLE COMPOUNDS, PHARMACEUTICAL COMPOSITIONS CONTAINING THE SAME AND USES THEREOF” (Universidade Federal de Santa Catarina, priority 2011, published 2015).

“Also recorded” adds a separate entry of the source.

The subject of test [1] is HL-60 cells. Description: DNA microarray gene expression and GSEA analysis. It is filed as cell-based, human. To be noted: 125 nM, 6 h. The protocol: The cells were incubated for 12 hours in fresh medium before the experiments. Two million cells from the leukemic cell line HL60, in triplicate, were treated with a 125 nM dose of compound 07 or with dimethylsulfoxide (DMSO) vehicle for 6 h, in DMEM supplemented with 10% fetal bovine serum. At the end of this period, the cells were recovered by brief centrifugation and lysed in a solution of guanidine of the RNAspin Mini RNA Isolation kit (GE).
Total RNA was extracted from cells using the RNAspin Mini RNA Isolation kit (GE) following the manufacturer's instructions. A total of 100 ng of RNA was used to prepare biotinylated complementary RNA probes (Bio-cRNA), by cDNA synthesis followed by amplification by in vitro transcription, using the GeneChip WT cDNA Synthesis and Amplification kit (Affymetrix) according to the recommendations of the manufacturer. […]
the results of the microarray hybridization were read in the Affymetrix Gene Chip Scanner 3000-7G. Data were analyzed in the Bioconductor platform. […] The list of differentially expressed genes were analyzed using the CMap (http://www.broad.mit.edu/cmap/) for identification of possible action mechanisms related to the action of known compounds (Lamb, J., Crawford E. D. The Connectivity Map: Using Gene-Expression Signatures to Connect Small Molecules, Genes and Disease Science 2006, 313, 1929-1935). […]

Test [2] concerns cell cycle regulatory proteins in Jurkat cells. Briefly: Western blot of cell cycle regulatory proteins. It is filed as cell-based, human. As to conditions: 125 nM. The protocol: The cells were incubated for 12 hours in fresh medium before experiments. Two million cells from the Jurkat line were incubated for 12 h, 18 h, 24 h and 30 h in RPMI-640 medium supplemented with 10% Fetal Bovine Serum (FCS) and 0.2% Penicillin/Streptomycin (PS) with a concentration of 125 nM of compound 07 or DMSO (vehicle).
The cells treated or not with compound 07 were lysed in buffer containing 50 mM Tris pH 7.7, 150 mM NaCl, 5 mM EDTA, 1% Sigma phosphatase inhibitor cocktail I, 1% Sigma phosphatase inhibitor cocktail II, 1% Sigma protease inhibitor cocktail II, 1% Igepal, 0.1% SDS, 0.5% sodium deoxycholate and 1 mM PMSF. After incubation for 30 min on ice and 3 cycles of freezing and thawing, extracts were centrifuged at 10,000 rpm for 20 min at 4° C. to sediment membrane debris. Of the supernatant, we proceeded with protein quantification by Bradford reagent (Biorad). The samples were boiled for 5 min with prior addition of β-mercaptoethanol and 100 μg of protein were subjected to acrylamide:bisacrylamide gel electrophoresis (39:1) 10% with SDS and electrotransferred to 0.45 μm nitrocellulose membrane (Schleicher & Schuell). […]
In general terms: In western blotting, separated proteins are transferred to a membrane and probed.

Test [3] relates to human leukemic Jurkat cells and HEK. Briefly: Screening of compounds by cell viability assay (MTT) in leukemic cells. It is filed as cell-based. To be noted: leukemic cells of Jurkat and HEK strains. How it is done:
RPMI-1640 medium with 10% FBS (fetal bovine serum), 100 IU/mL penicillin, 100 µg/mL streptomycin and incubated at 37° C. and 5% CO2. Cytotoxicity assays were performed according to the method described in the literature (Pieters, R.; et al. In vitro drug sensitivity of cells from children with leukemia using the MTT assay with improved culture conditions. Blood, 1990, 76, 2327-2336; Pieters, R.; et al. Relation of cellular drug resistance to long-term clinical outcome in childhood acute lymphoblastic leukaemia. Lancet, 1991, 338, 399-403 e Kaspers, G. J.; et al. In vitro cellular drug resistance and prognosis in newly diagnosed childhood acute lymphoblastic leukemia. Blood, 1997, 90, 2723). Cells were resuspended at a concentration of 3.75 10^5 cells/mL in culture medium as described. Eighty microliters of this suspension were seeded into plates with 96 round-bottom wells, containing 20 microliters of different concentrations of compound or vehicle alone. Each treatment was done in triplicate. […] After incubating overnight, absorbance reading at 570 nm was carried out. The percentage of cells surviving the treatment were calculated relative to the number of surviving cells in the medium without addition of the compounds in question (“negative control”). […]

On to `COc1cc(C(=O)NN=Cc2cccc3ccccc23)cc(OC)c1OC` [Compound 07], for which the “expression of tubulin and tubulin-specific chaperone gene set (GSEA)” value in test [1] was “drastic reduction of the expression of a set of genes of tubulin and tubulin-specific chaperones”. Besides, the “expression of CDKs” value in test [2] was “repression of the expression of CDK4 and to a lesser extent also of CDK6, shorter isoform of CDK2 and larger isoform of CDK9”. Besides, the “phosphorylation of Chk2” value in test [2] (after 12 hours of treatment) is listed as “possible to detect the phosphorylation of Chk2 in Thr68”. In addition, the antileukemic activity result in test [3] is “excellent antileukemic activity; also recorded: significant antileukemic activity”.
